The assay has as its system 349418-098-R-PDC complex spheroid growth. The experiment in a line: Anticancer human tumor 349418-098-R-PDC patient-derived lung adenocarcinoma cell line growth inhibition [AhR]. The following applies: for viability, T/C: stronger effect = lower value. From the text:
Multicellular complex tumor spheroid response to aryl hydrocarbon receptor antagonists in combination with a variety of drugs and investigational agents in selected tumor cell lines
The current study was undertaken to assess response to aryl hydrocarbon receptor antagonists in combination with standard-of-care drugs and investigational agents in solid tumor complex spheroid models. Complex spheroids include a stromal component modeled by human endothelial cells (HUVEC) and fibroblasts modeled by human mesenchymal stem cells (MSCs). The concentration ranges selected for each drug and investigational agent were based upon clinically achievable concentrations if the clinical Cmax of the agent was known.
Compounds. The drugs and investigational agents: BAY 2416964 (NSC825713), GNF351 (NSC835774), CH-223191 (NSC835775), CPI-455 (NSC825282), aza-TdCyd (NSC777586), decitabine (NSC127716), belinostat (NSC758774), entinostat (NSC756642), pevonedistat (NSC761192), tazemetostat (NSC777109), talazoparib (NSC765396), olaparib (NSC753686), selinexor (NSC780203), nedisertib (M3814, NSC802822), bortezomib (NSC756655), venetoclax (NSC766270), doxorubicin (NSC123127), elimusertib (BAY189344, NSC800525), ceralasertib (AZD6738, NSC777638), TAK-243 (NSC785004), alisertib (NSC759677), etoposide (NSC141540), topotecan (NSC609699), eribulin (NSC707389), gemcitabine (NSC613327), carboplatin (NSC241240), cisplatin (NSC119875), and SN-38 (NSC673596) were obtained from the National Cancer Institute (NCI) Developmental Therapeutics Program Chemical Repository (32). The FDA-approved anticancer drug set is available from the Developmental Therapeutics Program at https://dtp.cancer.gov/organization/dscb/obtaining/available plates.htm. […] The stock solutions were prepared in dimethyl sulfoxide (DMSO, Sigma-Aldrich, St. Louis, MO, cat. D2650), except for the platinum compounds which were prepared in saline (Quality Biological, Gaithersburg, MD, cat. 114-055-101), at 800-fold the tested concentration and stored at -70 degrees C prior to their use. All drugs and investigational agents were tested over a range starting from a high concentration at or near the clinical Cmax and decreasing in half-log increments. If the clinical Cmax for an agent had not been determined, the highest concentration tested was 10 microM (Table 1).
Cell Culture. All cells were maintained in an incubator at 37 degrees C and 5% CO2 with 95% humidity. The PDC lines were cultured according to standard operating procedures established by the NCI PDMR (https://pdmr.cancer.gov). Briefly, all PDCs were thawed and cultured in Matrigel-coated flasks prepared with a working solution of 1X Ham's F-12 nutrient mix, without supplementation (Invitrogen, Waltham, MA, cat. 11765054), 100 U/mL penicillin-streptomycin (Invitrogen, cat. 15140122), and 2.5% Matrigel (Corning Inc., Corning, NY, cat. 354248) for the first three passages. All PDCs were cultured in complete DMEM/F-12 media containing advanced DMEM/F-12 (Invitrogen, cat. 12634028), 4.9% defined fetal bovine serum, heat inactivated (HyClone Laboratories Inc., Logan, UT, cat. SH30070.03HI), 389 ng/mL hydrocortisone (Sigma-Aldrich, cat. H4001), 9.7 ng/mL human EGF recombinant protein (Invitrogen, cat. PHG0313), 23.4 microg/mL adenine (Sigma-Aldrich, cat. A2786), 97.3 U/mL penicillin-streptomycin (Invitrogen, cat. 15140122), 1.9 mM L-glutamine (Invitrogen, cat. 25030081), and 9.7 microM Y-27632 dihydrochloride (Tocris Bioscience, Bristol, United Kingdom, cat. 1254). The PDCs were cultured in complete DMEM/F12 media without 10 microM Y-27632 dihydrochloride for at least two passages prior to the screen. The established cell lines NCI-H1341 and […] were cultured in DMEM/F-12, HEPES (Invitrogen, cat. 11330032), 5% defined fetal bovine serum (HyClone Laboratories Inc., cat. SH30070.03), ITS premix universal culture supplement [insulin (5 microg/mL), transferrin (5 microg/mL), and selenious acid (5 ng/mL)] […]

The mark [1] stands for this setting: curve of first compound, second compound 0.1 µM.
The mark [2] stands for this setting: curve of first compound, second compound 0.316 µM.
Setting [3] is: curve of first compound, second compound 1 µM.
The mark [4] stands for this setting: curve of first compound, second compound 3.16 µM.
Setting [5] is: curve of first compound, second compound 10 µM.
[6] abbreviates: second compound 0.1 µM, first compound 0.0316 µM.
[7] abbreviates: second compound 0.1 µM, first compound 0.1 µM.
[8] abbreviates: second compound 0.1 µM, first compound 0.316 µM.
Setting [9] is: second compound 0.1 µM, first compound 1 µM.
Where [10] appears, read: second compound 0.316 µM, first compound 0.0316 µM.
Where [11] appears, read: second compound 0.316 µM, first compound 0.1 µM.
Where [12] appears, read: second compound 0.316 µM, first compound 0.316 µM.
Where [13] appears, read: second compound 0.316 µM, first compound 1 µM.
[14] abbreviates: second compound 1 µM, first compound 0.0316 µM.
Where [15] appears, read: second compound 1 µM, first compound 0.1 µM.
[16] abbreviates: second compound 1 µM, first compound 0.316 µM.
Where [17] appears, read: second compound 1 µM, first compound 1 µM.
The mark [18] stands for this setting: second compound 3.16 µM, first compound 0.0316 µM.
[19] abbreviates: second compound 3.16 µM, first compound 0.1 µM.
[20] abbreviates: second compound 3.16 µM, first compound 0.316 µM.
[21] abbreviates: second compound 3.16 µM, first compound 1 µM.
Where [22] appears, read: second compound 10 µM, first compound 0.0316 µM.
[23] abbreviates: second compound 10 µM, first compound 0.1 µM.
The mark [24] stands for this setting: second compound 10 µM, first compound 0.316 µM.
Setting [25] is: second compound 10 µM, first compound 1 µM.

The source of these data is PubChem BioAssay AID1918996 (Molecular Pharmacology Branch, DTP, NCI, 2023).

Values joined by “and” are separate entries in the source; they are usually repeats but may differ in a detail not shown here. Equal entries are not always repeated. A value given as a limit tells only on which side of the number the result lay.
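Also: spheroids exposed to agents for seven days before luminescence viability read.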
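For viability, T/C in this document: spheroids also contain HUVEC endothelial cells and human MSC stroma.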

As usually defined, the viability, T/C is the result in the treated group divided by that in the control group, in per cent. By IC50 is commonly meant the concentration that gives 50% inhibition. With `CC(C)c1c(-c2ccccc2)nc2c(C#N)c[nH]n2c1=O`, the viability, T/C (compound 0.0316 µM) was 112% and 92.6% and 89.1%; the viability, T/C (compound 0.1 µM) was 106% and 83.2% and 76.1%; the viability, T/C (compound 0.316 µM) was 100% and 78.1% and 72%; the viability, T/C (compound 1 µM) is 103% and 77.8% and 82.3%; the viability, T/C (compound 3.16 µM) was 108% and 86.8% and 85.3%; the viability, T/C (compound 10 µM) is 91.6% and 86.8% and 79.7%. Also, the IC50 (curve of compound) is > 10000 nM.

Turning to `CC1COCCN1c1cc(C2(S(C)(=N)=O)CC2)nc(-c2ccnc3[nH]ccc23)n1` (centres undefined), the viability, T/C runs as follows: (compound 0.0316 µM) 101% and 113% and 96.1%; (compound 0.1 µM) 102% and 81.9% and 78.6%; (compound 0.316 µM) 102% and 125% and 74.4%; (compound 1 µM) 100% and 62.9% and 65.1%; (compound 3.16 µM) 73% and 40.4% and 28.4%; (compound 10 µM) 16.1% and 13.5% and 12.1%. Besides, for the setting “curve of compound”, the IC50 is 5040 nM and 1510 nM and 1460 nM.

Turning to `COc1ccc([C@@H](O)c2cc(-c3ncnc4cc(N5CCOCC5)ccc34)c(F)cc2Cl)nn1`, the viability, T/C is 97.4% and 104% and 117% (compound 0.0316 µM); 112% and 77.3% and 98.6% (compound 0.1 µM); 101% and 83.1% and 51.5% (compound 0.316 µM); 84.5% and 66.4% and 65.3% (compound 1 µM); 57.2% and 33.5% and 38.6% (compound 3.16 µM); 16.7% and 11.3% and 12.6% (compound 10 µM). Also, the IC50 (curve of compound) was 3790 nM and 1770 nM and 1160 nM.

As for `Cc1cncc(-c2nc(NCCc3c[nH]c4ccccc34)c3ncn(C(C)C)c3n2)c1`, the viability, T/C by setting is: (compound 0.1 µM) 97.7% [middle of 20 runs]; (compound 0.316 µM) 93.4% [middle of 20 runs]; (compound 10 µM) 2.04% [middle of 19 runs].

With `COc1cccc2c1C(=O)c1c(O)c3c(c(O)c1C2=O)CC(O)(C(=O)CO)CC3OC1CC(N)C(O)C(C)O1` (centres undefined) + CC(CO)NC(=O)c1cc(-c2ccc(Cl)cc2)nn(-c2cnn(C)c2)c1=O, the IC50 reads like this: under setting [1], < 31.6 nM; under setting [2], < 31.6 nM; under setting [3], < 31.6 nM; under setting [4], < 31.6 nM; under setting [5], < 31.6 nM. Also, the viability, T/C runs as follows: under setting [6], 21.8%; under setting [7], 13.4%; under setting [8], 3.76%; under setting [9], 0.59%; (second compound 0.1 µM, first compound 3.16 µM) 2.28%; (second compound 0.1 µM, first compound 10 µM) 5.15%. In addition, the viability, T/C was 26.6% under setting [10]; 13.2% under setting [11]; 3.63% under setting [12]; 0.47% under setting [13]; 3.14% (second compound 0.316 µM, first compound 3.16 µM); 5.48% (second compound 0.316 µM, first compound 10 µM). Besides, the viability, T/C under setting [14] was 25%; the viability, T/C under setting [15] is 14.7%; the viability, T/C under setting [16] was 3.05%; the viability, T/C under setting [17] is 0.52%; the viability, T/C (second compound 1 µM, first compound 3.16 µM) was 3.58%; the viability, T/C (second compound 1 µM, first compound 10 µM) was 5.75%. In addition, the viability, T/C reads like this: under setting [18], 19.6%; under setting [19], 14.4%; under setting [20], 2.92%; under setting [21], 0.71%; (second compound 3.16 µM, first compound 3.16 µM) 2.73%; (second compound 3.16 µM, first compound 10 µM) 5.34%. Moreover, the viability, T/C is, setting by setting: under setting [22], 18.5%; under setting [23], 12.3%; under setting [24], 1.49%; under setting [25], 1.33%; (second compound 10 µM, first compound 3.16 µM) 3.87%; (second compound 10 µM, first compound 10 µM) 6.78%.

With `Nc1ncn(C2CC(O)C(CO)O2)c(=O)n1` (centres undefined) + CC(CO)NC(=O)c1cc(-c2ccc(Cl)cc2)nn(-c2cnn(C)c2)c1=O, the IC50 amounted to 135 nM under setting [1]; 63.3 nM under setting [2]; 92.2 nM under setting [3]; 103 nM under setting [4]; 44.6 nM under setting [5]. Moreover, the viability, T/C is, setting by setting: (second compound 0.1 µM, first compound 0.00316 µM) 101%; (second compound 0.1 µM, first compound 0.01 µM) 90.6%; under setting [6], 73.4%; under setting [7], 55.2%; under setting [8], 36.6%; under setting [9], 23.8%. Moreover, the viability, T/C (second compound 0.316 µM, first compound 0.00316 µM) was 108%; the viability, T/C (second compound 0.316 µM, first compound 0.01 µM) was 106%; the viability, T/C under setting [10] was 72%; the viability, T/C under setting [11] is 35%; the viability, T/C under setting [12] was 43.1%; the viability, T/C under setting [13] was 25.7%. The viability, T/C runs as follows: (second compound 1 µM, first compound 0.00316 µM) 78.6%; (second compound 1 µM, first compound 0.01 µM) 67.3%; under setting [14], 67.9%; under setting [15], 41.6%; under setting [16], 43.3%; under setting [17], 28.9%. The viability, T/C is 55.4% (second compound 3.16 µM, first compound 0.00316 µM); 64.9% (second compound 3.16 µM, first compound 0.01 µM); 84.4% under setting [18]; 50.6% under setting [19]; 30% under setting [20]; 26.8% under setting [21]. For the same compound, the viability, T/C was 51.9% (second compound 10 µM, first compound 0.00316 µM); 63.9% (second compound 10 µM, first compound 0.01 µM); 49.8% under setting [22]; 43.2% under setting [23]; 24.8% under setting [24]; 20.1% under setting [25].
